We go through 1 molecule from US20100137433A1, “Production of Rosmarinic Acid from Spearmint and uses Thereof” (priority 2007, published 2010).

The test system of data set [1] is mild allergic asthmatic subjects. The experiment in a line: Methacholine inhalation test (methacholine PC20, airway hyper-responsiveness). The settings on record: tea 2 cups per day for 7 days. The class given is in vivo, human. The protocol:
Subjects. Two subjects (45 and 57 year old, male) were recruited for the study. Inclusion criteria required subjects to be non-smokers with stable, mild atopic asthma, free of other lung disease. Subjects were required to have FEV1 (forced expiratory volume in 1 second)>70% of predicted, baseline methacholine PC20 (the provocative concentration of methacholine causing a 20% fall in FEV1)<16 mg/mL, and development of an allergen-induced EAR (at least 20% fall in FEV1 within 2 h post allergen inhalation) and LAR (at least 15% fall FEV1 between 3-7 h post allergen inhalation).
(§1) Study design. Subjects meeting the inclusion criteria underwent allergen challenge with placebo and rosmarinic acid, in this order, separated by a washout period of at least 4 weeks. Placebo was inhaled PBS on 2 consecutive mornings before challenge. Rosmarinic acid treatment consisted of 7 days of 2 cups of tea per day. Day 6 consisted of pre-dose measurements of airway hyperresponsiveness and sputum cells. On Day 7 allergen inhalation challenge was performed. Measurements of FEV1 were taken at regular intervals until 7 h after challenge and sputum cells were then collected. […]
Methacholine inhalation challenge was performed as described by Cockcroft (1985). The test was terminated when a fall in FEV1 of 20% of the baseline value occurred, and the methacholine PC20 is calculated.

The test system is the same in data set [2]. The experiment in a line: Allergen inhalation challenge (allergen-induced bronchoconstriction, EAR and LAR). It is filed as in vivo, human. The protocol: (§2) Subjects. Two subjects (person) were recruited for the study. Inclusion criteria required subjects to be non-smokers with stable, mild atopic asthma, free of other lung disease. Subjects were required to have FEV1 (forced expiratory volume in 1 second)>70% of predicted, baseline methacholine PC20 (the provocative concentration of methacholine causing a 20% fall in FEV1)<16 mg/mL, and development of an allergen-induced EAR (at least 20% fall in FEV1 within 2 h post allergen inhalation) and LAR (at least 15% fall FEV1 between 3-7 h post allergen inhalation).
as §1
Allergen challenge was performed as described by O'Byrne (1987), and the concentration of allergen extract (Omega Laboratories, Montreal, QC) for inhalation was determined from a formula described by Cockcroft et al. (1987). […]

For data set [3] the test system is unchanged. The experiment in a line: Sputum analysis (allergen-induced airway inflammation, sputum eosinophils). It is filed as in vivo, human. The settings on record: vs placebo, two subjects, FIGS. 4A-4B. The protocol: as §2, §1
Sputum was induced and processed using the method described by Pizzichini et al. (1996). Differential cell counts were obtained and an aliquot of cells were lysed for quantitative PCR measurements.

Data set [4] in a line: Stability of rosmarinic acid in dried and stored spearmint 700B tissues. It is filed as physicochemical. The settings on record: heated to 80° C. for an additional 24 hours after drying to 11.7% moisture. The protocol:
The level of rosmarinic acid in dried and stored samples of spearmint line 700B tissues was followed over time to determine its stability. Spearmint plant tissue was harvested, dried, and stored, and levels of rosmarinic acid were determined essentially as described by Fletcher et al., (2005a). Plant material was harvested manually from the field and placed in large net bags. The bagged mint […] spread evenly over a grate and dried in a drying oven at a temperature of 35° C. for 96 hours. The stems and other debris were separated from the leaves, and the leaves were crushed to a size suitable for tea. The crushed leaf material was transferred to zip-lock bags and stored at room temperature in the absence of light. Additionally, to study the effect of drying temperature on stability of RA, a sample of spearmint plant material was dried to 11.7% moisture as above for determination of RA content. After 96 hours, a sample of the material was placed into a drying oven and heated to 80° C. for an additional 24 hours, and RA levels were also determined.

The conditions of data set [5]: cited from earlier work.
The subject of data set [6] is Aβ25-35-injected mice. As to conditions: Aβ25-35 injection; cited from earlier work.
Data set [7] has as its system mice exposed to diesel dust particulates. As to conditions: 2 mg/day for 3 days prior to exposure; cited from earlier work.
The test system of data set [8] is seasonal allergic rhinitis. The settings on record: active treatment; cited from earlier work.

Where only a bound is given, the exact number is not on record here.

On to `O=C(/C=C/c1ccc(O)c(O)c1)O[C@H](Cc1ccc(O)c(O)c1)C(=O)O` [RA, α-O-caffeoyl-3,4-dihydroxyphenyl-lactic acid], for which the “Methacholine PC20” value in data set [1] (subject 19, 24 h post allergen challenge (cat)) worked out at 0.38 mg/mL; in data set [1] (subject 20, 24 h post allergen challenge (HDMDP)), 1.27 mg/mL. The “Allergen-induced EAR” value in data set [2] (subject #20, vs placebo, allergen 1:128 dilution with RA, 1:64 with diluent) is “lower”. Also, the “Effect on the allergen-induced EAR or LAR” value in data set [2] (two subjects, limited sample size) is recorded as “does not appear to have any effect”. In addition, the “% sputum eosinophils post allergen” value in data set [3] is listed as “consistently lower”. In data set [4], the “Amount of RA in the tissues before and after the 80° C. drying step” value is “remained the same”. The “Recovery of intact rosmarinic acid and metabolites in urine” value in data set [5] (rat urine) was 0.077 % of the amount ingested. Also, the “Time to full concentration in the blood plasma” value in data set [5] (rats, absorbed via the small intestine) is not above 30 min. The “Effective lowest dose preventing Aβ25-35-induced nitration of proteins in the hippocampus” value in data set [6] is 0.25 mg/kg. The “Protein and DNA damage in lung tissue (postmortem histological staining) compared to controls” value in data set [7] is reported as “marked decrease”. The “Numbers of neutrophils and eosinophils in nasal lavage fluid” value in data set [8] is listed as “significantly decreased”.
